# From patent US20180201654A1, “PEPTIDE INHIBITORS OF HAUSP DEUBIQUITINASE” (priority 2012, published 2018)
# Where two headings read alike, the source gives them in different places.
# Legend:
# [1] = target: T1, HAUSP TRAF domain HAUSP^62-205 (Homo sapiens, UniProt Q93009); format: binding; set-up: All residues of HAUSP^62-205, with the exception of Asp^62, are included in the final model; hexahistidine tag (TEV-cleavable) (cleaved yes); made in house; host or cells: E. coli BL21 (DE3) RIPL; conditions: for n: ITC binding stoichiometry, 150 mM NaCl, 10 mM HEPES (pH 7.0)
# T1 sequence (Q93009 62-205): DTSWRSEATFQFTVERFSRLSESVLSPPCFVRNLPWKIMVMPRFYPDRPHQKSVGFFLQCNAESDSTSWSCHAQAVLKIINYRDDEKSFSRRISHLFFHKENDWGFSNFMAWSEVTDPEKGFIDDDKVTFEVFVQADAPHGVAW
# Method: FIG. 5. Typical isothermal titration calorimetric measurements of the interactions between the HAUSP TRAF domain and the vIRF4 protein derivatives or other peptides. Purified proteins and synthesized peptides were reconstituted in 150 mM NaCl and 10 mM HEPES (pH 7.0). The calorimetric assays were performed using a VPITC system. All experiments were carried out with a stirring speed of 300 rpm at 20° C., and the thermal power was recorded every 10 s. Data were analyzed using the ORIGIN software package (version 7.0). […] Each titration against the HAUSP TRAF domain is indicated in each panel.
# (§1) Purified proteins and synthesized peptides (Peptron Inc., Deajeon, Korea) were reconstituted in 150 mM NaCl and 10 mM HEPES (pH 7.0). The calorimetric assays were performed using a VP-ITC system (MicroCal Inc., Northampton, Mass.). Samples were degassed by vacuum aspiration for 15 min prior to loading. All experiments were carried out with a stirring speed of 300 rpm at 20° C., and the thermal power was recorded every 10 s. Data were analyzed using the ORIGIN software package (version 7.0) supplied with the instrument. […] (SEQ ID NO: 6); EBNA1^435-449, […] (SEQ ID NO: 7); MDM2^137-152, […] […] (SEQ ID NO: 10). Each set of ITC experiments was repeated two or three times.
# [2] = tested on: PEL cells carrying p53 (wt); assay: Apoptosis assay (Annexin V/PI, flow cytometry) in PEL cells; format: cell-based, human; conditions: 10 μM
# Method: (§2) FIG. 3a-3g. […] Data are culled from 3 independent experiments.
# The proportion of cells at the S phase was determined by measuring incorporation of BrdU and 7-amino-actionomycin D (ADD) into DNA. Cells were grown at a density of 5×10^6 cells/ml indicated periods with the treatment of either peptide or Nutlin-3a. The cells were pulse-labeled with 10 μM BrdU for 30 min. Cells were permeabilized, fixed and BrdU-, 7AAD-stained using the BrdU Flow Kit (BD Pharmingen) according to manufacturer's instructions. Stained cells were analyzed by flow cytometry to determine the cell-cycle distribution on a FACS Scan (BD FACSCanto™ II). Apoptosis was measured by dual-labeling with the Annexin V-FITC Apoptosis Detection kit I (BD biosciences-Pharmingen) according to the manufacturer's instruction and analyzed by Flow Jo software.
# Shown is one representative experiment of three. It was shown that vif1/2 peptides cause cell death by apoptosis.
# In this respect, BCBL-1 cells were treated with 100 μM of either vif1 or vif2 peptide for the indicated time periods and then subjected to Annexin V and PI staining, followed by FACS analysis. 10 μM Nutlin-3a was used as a positive control.
# [3] = tested on: primary TKI-resistant Ph^+ and normal ALL cells; assay: Long-term cell culture of TKI-resistant ALL cells; format: cell-based, human; conditions: single agent, FIG. 15
# Description: To test whether vif1 and vif2 peptides have killing effect on relapse leukemia, this example chose two different karyotype relapse ALL cells: Ph^+BCR-ABL^T3151 and normal. The T3151 mutation is one of the common mechanism of escape and resistance against all kinds of tyrosine kinase inhibitors (TKIs). After treatment of these peptides into several different relapse ALL cells, this example performed Trypan blue staining to select dead cells in time dependent manner. […] This example next validated the effect of nilotinib/TAT-vif1 (or TAT-vif2) combination on primary TKI-resistance in Ph^+ and normal ALL during long-term cell culture.
# [4] = target: T2, HAUSP TRAF domain (Homo sapiens, UniProt Q93009); format: binding
# T2 construct: All residues of HAUSP^62-205, with the exception of Asp^62, are included in the final model; hexahistidine tag (TEV-cleavable) (cleaved yes); made in house; host or cells: E. coli BL21 (DE3) RIPL
# T2 sequence (Q93009 62-205): as above
# Method: FIG. 9. Typical isothermal titration calorimetric measurements of the competitive binding of vIRF4 with TRAF domain against cellular substrates. […] Each competitive titration is indicated in the panel.
# as §1
# To further gauge the competitive nature of vIRF4 binding, the TRAF domain was incubated with an equal molar amount of vIRF4^153-216 in the presence of a 5-fold molar excess of MDM2^137-152, and the mixture was then analyzed by size exclusion chromatography.
# [5] = target: T3, HAUSP (USP7) (Homo sapiens, UniProt Q93009); conditions: time-course, K48-Ub3-7 chains, 37° C.
# T3 sequence (Q93009 whole entry): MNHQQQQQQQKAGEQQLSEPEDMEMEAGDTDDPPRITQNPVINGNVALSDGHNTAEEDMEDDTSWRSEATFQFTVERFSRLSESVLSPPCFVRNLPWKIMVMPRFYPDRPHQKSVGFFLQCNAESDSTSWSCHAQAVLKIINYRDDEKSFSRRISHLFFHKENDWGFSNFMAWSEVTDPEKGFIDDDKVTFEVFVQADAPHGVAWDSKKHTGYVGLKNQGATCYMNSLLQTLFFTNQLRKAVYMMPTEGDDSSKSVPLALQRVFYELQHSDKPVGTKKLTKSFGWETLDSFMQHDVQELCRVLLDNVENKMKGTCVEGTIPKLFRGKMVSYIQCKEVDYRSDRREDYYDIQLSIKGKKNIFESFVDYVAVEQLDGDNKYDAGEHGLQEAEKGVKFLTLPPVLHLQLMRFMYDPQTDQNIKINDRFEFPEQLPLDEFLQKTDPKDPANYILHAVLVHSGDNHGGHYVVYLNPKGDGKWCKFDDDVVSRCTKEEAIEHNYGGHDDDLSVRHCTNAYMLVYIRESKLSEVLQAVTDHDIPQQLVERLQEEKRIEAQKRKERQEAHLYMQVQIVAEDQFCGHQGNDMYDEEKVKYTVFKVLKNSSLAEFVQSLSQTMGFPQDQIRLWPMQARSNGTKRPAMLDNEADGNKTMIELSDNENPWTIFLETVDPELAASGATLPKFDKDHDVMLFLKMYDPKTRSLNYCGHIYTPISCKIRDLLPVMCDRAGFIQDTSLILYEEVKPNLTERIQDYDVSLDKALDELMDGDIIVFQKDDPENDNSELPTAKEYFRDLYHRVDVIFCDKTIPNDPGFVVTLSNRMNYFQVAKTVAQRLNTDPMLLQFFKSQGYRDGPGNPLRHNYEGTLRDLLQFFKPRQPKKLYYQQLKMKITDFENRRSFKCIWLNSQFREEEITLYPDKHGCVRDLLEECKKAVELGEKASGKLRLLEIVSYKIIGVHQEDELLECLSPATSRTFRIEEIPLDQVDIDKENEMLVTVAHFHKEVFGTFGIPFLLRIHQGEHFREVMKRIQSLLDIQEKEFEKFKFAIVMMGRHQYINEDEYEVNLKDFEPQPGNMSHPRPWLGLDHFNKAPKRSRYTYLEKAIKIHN
# [6] = target: T4, USP8 (Homo sapiens, UniProt P40818); assay: In vitro deubiquitination assay with purified USP8; format: biochemical; conditions: 0.25 μM purified USP8 pre-mixed with peptide for 5 min; K48- or K63-linked chains
# T4 sequence (P40818 1-1118): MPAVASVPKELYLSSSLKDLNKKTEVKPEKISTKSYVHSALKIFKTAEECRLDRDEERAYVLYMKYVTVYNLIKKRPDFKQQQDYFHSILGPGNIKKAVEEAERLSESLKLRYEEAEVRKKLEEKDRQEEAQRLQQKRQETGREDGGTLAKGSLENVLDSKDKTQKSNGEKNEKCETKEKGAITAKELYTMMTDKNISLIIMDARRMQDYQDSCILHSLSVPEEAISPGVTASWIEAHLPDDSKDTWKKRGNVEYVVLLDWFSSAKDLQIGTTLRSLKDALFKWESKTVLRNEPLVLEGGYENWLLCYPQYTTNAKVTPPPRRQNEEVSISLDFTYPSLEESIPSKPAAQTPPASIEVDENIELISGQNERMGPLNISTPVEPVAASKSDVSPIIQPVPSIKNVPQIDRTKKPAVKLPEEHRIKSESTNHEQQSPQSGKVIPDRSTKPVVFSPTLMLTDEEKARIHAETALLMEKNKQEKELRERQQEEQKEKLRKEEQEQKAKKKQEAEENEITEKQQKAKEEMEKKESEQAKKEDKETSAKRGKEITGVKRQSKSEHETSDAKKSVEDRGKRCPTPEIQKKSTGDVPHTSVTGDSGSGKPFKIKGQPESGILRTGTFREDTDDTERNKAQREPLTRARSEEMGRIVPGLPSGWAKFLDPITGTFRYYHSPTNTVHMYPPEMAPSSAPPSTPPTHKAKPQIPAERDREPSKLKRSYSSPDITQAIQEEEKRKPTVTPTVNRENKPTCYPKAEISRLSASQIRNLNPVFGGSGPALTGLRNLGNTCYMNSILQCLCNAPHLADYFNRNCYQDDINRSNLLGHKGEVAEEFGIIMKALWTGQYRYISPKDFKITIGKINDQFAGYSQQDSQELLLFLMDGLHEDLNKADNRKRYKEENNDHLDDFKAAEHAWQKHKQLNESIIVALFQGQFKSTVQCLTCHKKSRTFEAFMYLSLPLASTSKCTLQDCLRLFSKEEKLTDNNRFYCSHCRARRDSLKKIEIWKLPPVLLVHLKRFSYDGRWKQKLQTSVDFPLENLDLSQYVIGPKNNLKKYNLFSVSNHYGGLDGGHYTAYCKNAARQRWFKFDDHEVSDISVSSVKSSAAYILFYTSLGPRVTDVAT
# [7] = target: T1, HAUSP TRAF domain HAUSP^62-205; assay: Size exclusion chromatography of complex formation in excess MDM2^137-152; format: binding; set-up: hexahistidine tag (TEV-cleavable) (cleaved yes); made in house; host or cells: E. coli BL21 (DE3) RIPL; conditions: in the presence of a 5-fold molar excess of MDM2^137-152
# [8] = tested on: p53, p21, MDM2 and HAUSP levels in PEL cells; assay: Western blot of p53 and its transcriptional targets in PEL cells; format: cell-based, human; conditions: peptide treatment
# Description: as §2
# [9] = target: T3, HAUSP (USP7); assay: In vitro DUB assay with ubiquitinated MDM2 as substrate; conditions: HAUSP preincubated with increasing amounts of peptide; 1 h at 37° C.
Compound,n ([1]; 20° C.),"TΔS ([1]; ITC, 20° C., pH 7.0)","ΔG ([1]; ITC, 20° C., pH 7.0)","ΔH ([1]; ITC, 20° C., pH 7.0)","HAUSP DUB activity, comparative kinetic analysis [5]",USP8 DUB activity [6],HAUSP levels [8],HAUSP DUB activity against ubiquitinated MDM2 [9],also measured
"C[C@H](NC(=O)[C@@H]1CCCN1C(=O)CNC(=O)[C@H](CCC(N)=O)NC(=O)[C@@H](N)CCC(=O)O)C(=O)N[C@@H](CC(=O)O)C(=O)N[C@@H](CC(=O)O)C(=O)N1CCC[C@H]1C(=O)NCC(=O)N[C@@H](CCC(=O)O)C(=O)NCC(=O)N1CCC[C@H]1C(=O)N[C@@H](CO)C(=O)N[C@H](C(=O)NCC(=O)O)[C@@H](C)O [EBNA1^435-449, reference compound]",0.81 ± 0.01,-8.69 kcal/mol,-8.48 kcal/mol,-17.17 ± 0.13 kcal/mol,,,,,"Ka ([1]; ITC, 20° C., pH 7.0): 2.10 ± 0.15 10^6 M^−1"
COc1ccc(C2=N[C@@H](c3ccc(Cl)cc3)[C@@H](c3ccc(Cl)cc3)N2C(=O)N2CCNC(=O)C2)c(OC(C)C)c1 [Nutlin-3a],,,,,,,,,cell death [2]: considerable cell death
Cc1cn(-c2cc(NC(=O)c3ccc(C)c(Nc4nccc(-c5cccnc5)n4)c3)cc(C(F)(F)F)c2)cn1 [nilotinib],,,,,,,,,response of refractory ALL cells in long-term culture [3]: did not achieve a therapeutic response
CC[C@H](C)[C@H](NC(=O)[C@H](Cc1c[nH]c2ccccc12)NC(=O)[C@@H](NC(=O)[C@@H](N)CO)C(C)C)C(=O)N1CCC[C@H]1C(=O)N[C@H](C(=O)N[C@@H](CC(N)=O)C(=O)N[C@@H](CCC(=O)O)C(=O)NCC(=O)N[C@@H](C)C(=O)N[C@@H](CO)C(=O)N[C@H](C(=O)N[C@@H](CO)C(=O)NCC(=O)N[C@@H](CCSC)C(=O)O)[C@@H](C)O)C(C)C [vIRF4^202-216],0.84 ± 0.01,-10.63 kcal/mol,-8.60 kcal/mol,-19.22 ± 0.05 kcal/mol,weakly attenuated,can not inhibit,Neither vif1 nor vif2 peptide treatment altered,efficiently blocked,association constant (Kobs) ([4]; competitor titrated against MDM2^137-152-bound TRAF): 1.09e+07 M⁻¹; association constant (Kobs) ([4]; competitor titrated against p53^350-364-bound TRAF): 4.42e+07 M⁻¹; association constant (Kobs) ([4]; competitor titrated against p53^355-369-bound TRAF): 3.58e+07 M⁻¹; Kobs ([4]; titrated to MDM2^137-152-TRAF): 10.875 ± 1.308 10^6 M^−1; ΔHobs ([4]; titrated to MDM2^137-152-TRAF): -25.870 ± 0.240 kcal/mol; Kobs ([4]; titrated to p53^350-364-TRAF): 44.200 ± 4.200 10^6 M^−1; ΔHobs ([4]; titrated to p53^350-364-TRAF): -19.070 ± 0.194 kcal/mol; Kobs ([4]; titrated to p53^355-369-TRAF): 35.800 ± 3.400 10^6 M^−1; ΔHobs ([4]; titrated to p53^355-369-TRAF): -19.150 ± 0.203 kcal/mol; complex formation with the TRAF domain [7]: formed a stable complex; tighter binding to the TRAF domain compared to the peptides derived from MDM2 and p53 ([1]; ITC): 28-40 fold
TRQVTQASSFTWRVPG (GTRQVTQASSFTWRVPG; Human herpesvirus 8) [vif2],,,,,completely suppressed,can not inhibit,Neither vif1 nor vif2 peptide treatment altered,efficiently blocked,
